Data taken from the NIST ThermoML archive (doi:10.1021/acs.jced.7b00543).

Details: Capillary rise

C=C(F)C(F)(F)F [2,3,3,3-tetrafluoro-1-propene]
Details	surface tension liquid-gas [mN/m]
242.21 K	13.25
244.21 K	12.98
245.22 K	12.84
248.08 K	12.45
250.1 K	12.18
252.25 K	11.9
255.34 K	11.49
258.24 K	11.11
260.34 K	10.83
263.12 K	10.47
265.13 K	10.21
268.11 K	9.828
270.15 K	9.568
275.55 K	8.889
278.58 K	8.512
280.24 K	8.307
283.24 K	7.94
285.32 K	7.688
288 K	7.364
290.08 K	7.117
296.04 K	6.415
300.01 K	5.956
305.09 K	5.382
310.09 K	4.829
312.28 K	4.591
315.2 K	4.279
317.48 K	4.038
320.48 K	3.726
322.47 K	3.523
325.1 K	3.259
327.3 K	3.041
330.27 K	2.752
332.21 K	2.568
335.26 K	2.284
337.53 K	2.077
340.11 K	1.85
342.54 K	1.64
345.13 K	1.425
347.36 K	1.244
350.21 K	1.023
355.63 K	0.637
360.23 K	0.349
362.34 K	0.234
365 K	0.108

F/C=C/C(F)(F)F [trans-1,3,3,3-tetrafluoropropene]
Details	surface tension liquid-gas [mN/m]
242.01 K	15.66
245.14 K	15.23
248.08 K	14.82
250.11 K	14.54
255.11 K	13.85
260.07 K	13.18
265.12 K	12.51
268.98 K	12
271.51 K	11.67
275.65 K	11.13
280.14 K	10.55
285.03 K	9.923
288.19 K	9.525
290.19 K	9.275
293.1 K	8.913
295.07 K	8.67
300.07 K	8.059
305.06 K	7.46
310.06 K	6.873
315.05 K	6.304
320.05 K	5.724
325.03 K	5.171
330.05 K	4.621
335.09 K	4.087
340.08 K	3.565
345.07 K	3.094
350.07 K	2.589
355.03 K	2.132
360.08 K	1.605
365.09 K	1.171
370.07 K	0.761
375.14 K	0.395
380.09 K	0.109

CC(C)C [2-methylpropane]
Details	surface tension liquid-gas [mN/m]
280.34 K	11.99
283.22 K	11.79
285.45 K	11.48
288.02 K	11.17
290.14 K	10.99
293.53 K	10.6
296.42 K	10.23
299.37 K	9.829
302.08 K	9.595
305.41 K	9.223
307.43 K	9.03
310.75 K	8.607
313.15 K	8.314
315.62 K	7.999
318.22 K	7.683
320.46 K	7.584
323.41 K	7.172
325.44 K	7.013
327.83 K	6.731
329.85 K	6.538
330.18 K	6.476
332.56 K	6.214
335.58 K	5.925
338.1 K	5.686
340.42 K	5.479
342.74 K	5.22
345.39 K	4.972
347.26 K	4.847
350.12 K	4.526
